The results in this text go back to patent US9029337B2, “Modulation of factor 7 expression” (Isis Pharmaceuticals, Inc., priority 2007, dated 2015).

Strand notation (5' to 3'): a small letter for the sugar, then the base; units joined by * are phosphorothioate-linked, units joined directly phosphodiester-linked; [ ] holds rarer units or linkages, { } end groups; capitals alone tell only the bases. e = 2'-O-(2-methoxyethyl) (MOE); [5mC] = 5-methylcytosine; d = 2'-deoxy (DNA)

One data set relates to human Factor 7 mRNA. The experiment in a line: Antisense inhibition of human Factor 7 mRNA in HepB3 cells, 50 nM antisense oligonucleotide, lipofectin. In kind it is cell-based. The settings on record: Table 6, 50 nM, lipofectin, approximately 24 hours. The essentials:
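After transfection of wells containing 4,000 cells, treatment ran for approximately 24 h. RIBOGREEN®-measured total RNA served for normalisation, and inhibition was calculated as a percentage of untreated control.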
For the substance “422186 (antisense eG*eG*eA*dA*dG*dA*dA*dG*dG*dG*dA*d[5mC]*dG*dG*dA*dA*dG*eG*eT*eG) [compound 422186]”, the % Inhibition (usually the share of the control response that was lost under treatment) is given as 14%.

“422187 (antisense e[5mC]*eG*eG*dA*dA*dG*dA*dA*dG*dG*dG*dA*d[5mC]*dG*dG*dA*dA*eG*eG*eT) [compound 422187]”: the “% Inhibition” value is given as 28%.

As to “422188 (antisense eG*e[5mC]*eG*dG*dA*dA*dG*dA*dA*dG*dG*dG*dA*d[5mC]*dG*dG*dA*eA*eG*eG) [compound 422188]”, the “% Inhibition” value worked out at 37%.

Turning to “422189 (antisense e[5mC]*eG*e[5mC]*dG*dG*dA*dA*dG*dA*dA*dG*dG*dG*dA*d[5mC]*dG*dG*eA*eA*eG) [compound 422189]”, the “% Inhibition” value turned out to be 0%.

As to “422190 (antisense eG*e[5mC]*eG*d[5mC]*dG*dG*dA*dA*dG*dA*dA*dG*dG*dG*dA*d[5mC]*dG*eG*eA*eA) [compound 422190]”, the “% Inhibition” value was found to be 12%.

“422191 (antisense eA*eG*e[5mC]*dG*d[5mC]*dG*dG*dA*dA*dG*dA*dA*dG*dG*dG*dA*d[5mC]*eG*eG*eA) [compound 422191]”: the “% Inhibition” value was determined as 27%.

For the substance “422192 (antisense eG*eA*eG*d[5mC]*dG*d[5mC]*dG*dG*dA*dA*dG*dA*dA*dG*dG*dG*dA*e[5mC]*eG*eG) [compound 422192]”, the “% Inhibition” value was 27%.

Regarding “422193 (antisense eT*eG*eA*dG*d[5mC]*dG*d[5mC]*dG*dG*dA*dA*dG*dA*dA*dG*dG*dG*eA*e[5mC]*eG) [compound 422193]”, the “% Inhibition” value is recorded as 6%.

Regarding “422194 (antisense e[5mC]*eT*eG*dA*dG*d[5mC]*dG*d[5mC]*dG*dG*dA*dA*dG*dA*dA*dG*dG*eG*eA*e[5mC]) [compound 422194]”, the “% Inhibition” value was determined as 11%.

Consider “422195 (antisense eA*e[5mC]*eT*dG*dA*dG*d[5mC]*dG*d[5mC]*dG*dG*dA*dA*dG*dA*dA*dG*eG*eG*eA) [compound 422195]”, for which the “% Inhibition” value is given as 37%.

With “422196 (antisense eT*eA*e[5mC]*dT*dG*dA*dG*d[5mC]*dG*d[5mC]*dG*dG*dA*dA*dG*dA*dA*eG*eG*eG) [compound 422196]”, the “% Inhibition” value is recorded as 2%.

Regarding “422197 (antisense eT*eT*eA*d[5mC]*dT*dG*dA*dG*d[5mC]*dG*d[5mC]*dG*dG*dA*dA*dG*dA*eA*eG*eG) [compound 422197]”, the “% Inhibition” value is listed as 26%.

Turning to “422198 (antisense eG*eT*eT*dA*d[5mC]*dT*dG*dA*dG*d[5mC]*dG*d[5mC]*dG*dG*dA*dA*dG*eA*eA*eG) [compound 422198]”, the “% Inhibition” value was found to be 50%.

Regarding “422199 (antisense eG*eG*eT*dT*dA*d[5mC]*dT*dG*dA*dG*d[5mC]*dG*d[5mC]*dG*dG*dA*dA*eG*eA*eA) [compound 422199]”, the “% Inhibition” value is reported as 65%.

Still in this data set, the particulars now being: oligonucleotides targeted to nucleobases 11830 to 11869 of SEQ ID NO: 1 (Table 9).
For “422159 (antisense eA*eA*eT*dG*dG*dT*d[5mC]*dA*dG*dG*dG*d[5mC]*dT*dG*dG*dT*dT*eT*eT*eG) [compound 422159]”, the “% Inhibition (human Factor 7 mRNA levels)” value turned out to be 45%.

As for “422160 (antisense e[5mC]*eA*eA*dT*dG*dG*dT*d[5mC]*dA*dG*dG*dG*d[5mC]*dT*dG*dG*dT*eT*eT*eT) [compound 422160]”, the “% Inhibition (human Factor 7 mRNA levels)” value was found to be 42%.

Turning to “422161 (antisense eA*e[5mC]*eA*dA*dT*dG*dG*dT*d[5mC]*dA*dG*dG*dG*d[5mC]*dT*dG*dG*eT*eT*eT) [compound 422161]”, the “% Inhibition (human Factor 7 mRNA levels)” value came to 53%.

For “422162 (antisense eG*eA*e[5mC]*dA*dA*dT*dG*dG*dT*d[5mC]*dA*dG*dG*dG*d[5mC]*dT*dG*eG*eT*eT) [compound 422162]”, the “% Inhibition (human Factor 7 mRNA levels)” value stood at 59%.

In the case of “422163 (antisense eA*eG*eA*d[5mC]*dA*dA*dT*dG*dG*dT*d[5mC]*dA*dG*dG*dG*d[5mC]*dT*eG*eG*eT) [compound 422163]”, the “% Inhibition (human Factor 7 mRNA levels)” value worked out at 56%.

Take “422164 (antisense eG*eA*eG*dA*d[5mC]*dA*dA*dT*dG*dG*dT*d[5mC]*dA*dG*dG*dG*d[5mC]*eT*eG*eG) [compound 422164]”: the “% Inhibition (human Factor 7 mRNA levels)” value is listed as 64%.

In the case of “422165 (antisense eG*eG*eA*dG*dA*d[5mC]*dA*dA*dT*dG*dG*dT*d[5mC]*dA*dG*dG*dG*e[5mC]*eT*eG) [compound 422165]”, the “% Inhibition (human Factor 7 mRNA levels)” value was found to be 57%.

“422166 (antisense eA*eG*eG*dA*dG*dA*d[5mC]*dA*dA*dT*dG*dG*dT*d[5mC]*dA*dG*dG*eG*e[5mC]*eT) [compound 422166]”: the “% Inhibition (human Factor 7 mRNA levels)” value worked out at 63%.

Turning to “422167 (antisense eG*eA*eG*dG*dA*dG*dA*d[5mC]*dA*dA*dT*dG*dG*dT*d[5mC]*dA*dG*eG*eG*e[5mC]) [compound 422167]”, the “% Inhibition (human Factor 7 mRNA levels)” value worked out at 53%.

As for “422168 (antisense eT*eG*eA*dG*dG*dA*dG*dA*d[5mC]*dA*dA*dT*dG*dG*dT*d[5mC]*dA*eG*eG*eG) [compound 422168]”, the “% Inhibition (human Factor 7 mRNA levels)” value is 30%.

Turning to “422169 (antisense e[5mC]*eT*eG*dA*dG*dG*dA*dG*dA*d[5mC]*dA*dA*dT*dG*dG*dT*d[5mC]*eA*eG*eG) [compound 422169]”, the “% Inhibition (human Factor 7 mRNA levels)” value stood at 56%.

“422170 (antisense eG*e[5mC]*eT*dG*dA*dG*dG*dA*dG*dA*d[5mC]*dA*dA*dT*dG*dG*dT*e[5mC]*eA*eG) [compound 422170]”: the “% Inhibition (human Factor 7 mRNA levels)” value came to 28%.

With “422171 (antisense eG*eG*e[5mC]*dT*dG*dA*dG*dG*dA*dG*dA*d[5mC]*dA*dA*dT*dG*dG*eT*e[5mC]*eA) [compound 422171]”, the “% Inhibition (human Factor 7 mRNA levels)” value turned out to be 61%.

For “422172 (antisense eT*eG*eG*d[5mC]*dT*dG*dA*dG*dG*dA*dG*dA*d[5mC]*dA*dA*dT*dG*eG*eT*e[5mC]) [compound 422172]”, the “% Inhibition (human Factor 7 mRNA levels)” value was determined as 39%.

As to “422173 (antisense e[5mC]*eT*eG*dG*d[5mC]*dT*dG*dA*dG*dG*dA*dG*dA*d[5mC]*dA*dA*dT*eG*eG*eT) [compound 422173]”, the “% Inhibition (human Factor 7 mRNA levels)” value is 51%.

Take “422174 (antisense eG*e[5mC]*eT*dG*dG*d[5mC]*dT*dG*dA*dG*dG*dA*dG*dA*d[5mC]*dA*dA*eT*eG*eG) [compound 422174]”: the “% Inhibition (human Factor 7 mRNA levels)” value was found to be 55%.

Still in this data set, the particulars now being: oligonucleotides targeted to nucleobases 13760 to 13789 of SEQ ID NO: 1 (Table 10).
“422175 (antisense e[5mC]*eG*e[5mC]*d[5mC]*dG*dG*d[5mC]*dT*d[5mC]*dT*dG*d[5mC]*dT*d[5mC]*dA*dT*d[5mC]*e[5mC]*e[5mC]*e[5mC]) [compound 422175]”: the “% Inhibition (human Factor 7 mRNA levels)” value came to 69%.

For the substance “422176 (antisense e[5mC]*e[5mC]*eG*d[5mC]*d[5mC]*dG*dG*d[5mC]*dT*d[5mC]*dT*dG*d[5mC]*dT*d[5mC]*dA*dT*e[5mC]*e[5mC]*e[5mC]) [compound 422176]”, the “% Inhibition (human Factor 7 mRNA levels)” value is 52%.

For the substance “422178 (antisense eA*e[5mC]*e[5mC]*d[5mC]*dG*d[5mC]*d[5mC]*dG*dG*d[5mC]*dT*d[5mC]*dT*dG*d[5mC]*dT*d[5mC]*eA*eT*e[5mC]) [compound 422178]”, the “% Inhibition (human Factor 7 mRNA levels)” value was 37%.

With “422179 (antisense e[5mC]*eA*e[5mC]*d[5mC]*d[5mC]*dG*d[5mC]*d[5mC]*dG*dG*d[5mC]*dT*d[5mC]*dT*dG*d[5mC]*dT*e[5mC]*eA*eT) [compound 422179]”, the “% Inhibition (human Factor 7 mRNA levels)” value is reported as 43%.

As to “422180 (antisense e[5mC]*e[5mC]*eA*d[5mC]*d[5mC]*d[5mC]*dG*d[5mC]*d[5mC]*dG*dG*d[5mC]*dT*d[5mC]*dT*dG*d[5mC]*eT*e[5mC]*eA) [compound 422180]”, the “% Inhibition (human Factor 7 mRNA levels)” value was 54%.

As for “422181 (antisense eG*e[5mC]*e[5mC]*dA*d[5mC]*d[5mC]*d[5mC]*dG*d[5mC]*d[5mC]*dG*dG*d[5mC]*dT*d[5mC]*dT*dG*e[5mC]*eT*e[5mC]) [compound 422181]”, the “% Inhibition (human Factor 7 mRNA levels)” value is recorded as 66%.

Turning to “422182 (antisense e[5mC]*eG*e[5mC]*d[5mC]*dA*d[5mC]*d[5mC]*d[5mC]*dG*d[5mC]*d[5mC]*dG*dG*d[5mC]*dT*d[5mC]*dT*eG*e[5mC]*eT) [compound 422182]”, the “% Inhibition (human Factor 7 mRNA levels)” value turned out to be 11%.

“422184 (antisense eT*eG*e[5mC]*dG*d[5mC]*d[5mC]*dA*d[5mC]*d[5mC]*d[5mC]*dG*d[5mC]*d[5mC]*dG*dG*d[5mC]*dT*e[5mC]*eT*eG) [compound 422184]”: the “% Inhibition (human Factor 7 mRNA levels)” value stood at 55%.

Consider “422185 (antisense e[5mC]*eT*eG*d[5mC]*dG*d[5mC]*d[5mC]*dA*d[5mC]*d[5mC]*d[5mC]*dG*d[5mC]*d[5mC]*dG*dG*d[5mC]*eT*e[5mC]*eT) [compound 422185]”, for which the “% Inhibition (human Factor 7 mRNA levels)” value is reported as 48%.

Staying with this data set, now noted: oligonucleotides targeted to nucleobases 14707 to 14732 of SEQ ID NO: 1 (Table 11).
Take “422200 (antisense e[5mC]*e[5mC]*eT*dG*dA*dG*dG*d[5mC]*d[5mC]*dA*dG*d[5mC]*dA*dG*dA*dT*d[5mC]*eA*e[5mC]*eG) [compound 422200]”: the “% Inhibition (human Factor 7 mRNA levels)” value is 58%.

As for “422201 (antisense eG*e[5mC]*e[5mC]*dT*dG*dA*dG*dG*d[5mC]*d[5mC]*dA*dG*d[5mC]*dA*dG*dA*dT*e[5mC]*eA*e[5mC]) [compound 422201]”, the “% Inhibition (human Factor 7 mRNA levels)” value is reported as 71%.

Take “422202 (antisense eA*eG*e[5mC]*d[5mC]*dT*dG*dA*dG*dG*d[5mC]*d[5mC]*dA*dG*d[5mC]*dA*dG*dA*eT*e[5mC]*eA) [compound 422202]”: the “% Inhibition (human Factor 7 mRNA levels)” value is 49%.

For “422203 (antisense e[5mC]*eA*eG*d[5mC]*d[5mC]*dT*dG*dA*dG*dG*d[5mC]*d[5mC]*dA*dG*d[5mC]*dA*dG*eA*eT*e[5mC]) [compound 422203]”, the “% Inhibition (human Factor 7 mRNA levels)” value stood at 52%.
